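Each compound was tested at five concentrations against cells in 96-well plates for 48 hours. GI50: concentration for 50% inhibition of growth.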 The source made the active and inactive calls. Rule as the data show it: active = GI50 up to about 1.1 µM and inactive = higher.
Columns and labels:
Assay in all cases: DTP human tumour cell line panel, 48 h
786-0 = system: 786-0
SNB-19 = system: SNB-19
M14 = system: M14
NCI-H460 = system: NCI-H460
SF-268 = system: SF-268
K562 = system: K562
MOLT-4 = system: MOLT-4
Malme-3M = system: Malme-3M
DLD-1 = system: DLD-1
CAKI-1 = system: CAKI-1
HOP-92 = system: HOP-92
OVCAR-3 = system: OVCAR-3
SK-OV-3 = system: SK-OV-3
COLO 205 = system: COLO 205
SF-539 = system: SF-539
MDA-MB-435 = system: MDA-MB-435
T47D = system: T47D
MCF7 = system: MCF7
BT-549 = system: BT-549
PC-3 = system: PC-3

Row | SMILES | GI50 (786-0) | GI50 (SNB-19) | GI50 (M14) | GI50 (NCI-H460) | GI50 (SF-268) | GI50 (K562) | GI50 (MOLT-4) | GI50 (Malme-3M) | GI50 (DLD-1) | GI50 (CAKI-1) | GI50 (HOP-92) | GI50 (OVCAR-3) | GI50 (SK-OV-3) | GI50 (COLO 205) | GI50 (SF-539) | GI50 (MDA-MB-435) | GI50 (T47D) | GI50 (MCF7) | GI50 (BT-549) | GI50 (PC-3)
1 | CCN(CC)c1c(C(=O)/C=C/c2ccc(F)cc2)c(-c2ccccc2)nn(C)c1=O | 10.3 µM (inactive) | 17 µM (inactive) | 12.1 µM (inactive) | 4.49 µM (inactive) | 8.79 µM (inactive) | 12.4 µM (inactive) | 2.23 µM (inactive) | 13.3 µM (inactive) | 3.63 µM (inactive) | 11.6 µM (inactive) | 3.85 µM (inactive) | 3.82 µM (inactive) | 11.9 µM (inactive) | 4.25 µM (inactive) |  |  |  |  |  | 
2 | C/C(CC(=O)Nc1cc(Cl)c(Cl)cc1Cl)=N\NS(=O)(=O)c1ccc(C)cc1 | 41.9 µM (inactive) |  | 34.8 µM (inactive) | 38.8 µM (inactive) | 29.3 µM (inactive) | 35.5 µM (inactive) | 29.5 µM (inactive) | 31.2 µM (inactive) | 33.4 µM (inactive) |  | 23.1 µM (inactive) | 25.5 µM (inactive) | 53.7 µM (inactive) | 26.8 µM (inactive) | 30.5 µM (inactive) |  |  |  |  | 
3 | COc1ccc2ccnc(Cc3ccc(OCc4ccccc4)c(OC)c3)c2c1 | 19.2 µM (inactive) | 85.9 µM (inactive) | 18 µM (inactive) | 18.9 µM (inactive) | 22.1 µM (inactive) | 31 µM (inactive) | 17.6 µM (inactive) | 16.9 µM (inactive) | 25.5 µM (inactive) | 29.2 µM (inactive) |  | 17.1 µM (inactive) |  |  | 17.2 µM (inactive) |  |  |  |  | 
4 | CCOC(=O)C1(CC)CCCCC(=O)N1 (stereo not given) | > 100 µM (inactive) |  | > 100 µM (inactive) | > 100 µM (inactive) | > 100 µM (inactive) | > 100 µM (inactive) |  | > 100 µM (inactive) | > 100 µM (inactive) | > 100 µM (inactive) | > 100 µM (inactive) | > 100 µM (inactive) | > 100 µM (inactive) | > 100 µM (inactive) |  |  |  |  |  | 
5 | Cc1c(O)c(=O)ccn1C1OC(CO)C(O)C1O (stereo not given) | 85.9 µM (inactive) | > 100 µM (inactive) | > 100 µM (inactive) | 59.4 µM (inactive) | > 100 µM (inactive) | 50.4 µM (inactive) | 67.1 µM (inactive) | > 100 µM (inactive) | 91.8 µM (inactive) | > 100 µM (inactive) | > 100 µM (inactive) | > 100 µM (inactive) | > 100 µM (inactive) | > 100 µM (inactive) |  |  |  |  |  | 
6 | CCN(CC)C(=O)Cc1c(C(=O)N(CC)CC)c(=O)nc2sccn12 | > 100 µM (inactive) | > 100 µM (inactive) | > 100 µM (inactive) | > 100 µM (inactive) | > 100 µM (inactive) | > 100 µM (inactive) | > 100 µM (inactive) | > 100 µM (inactive) | > 100 µM (inactive) |  | > 100 µM (inactive) | > 100 µM (inactive) | > 100 µM (inactive) | > 100 µM (inactive) | > 100 µM (inactive) |  |  |  |  | 
7 | C=Cc1ccc(C)[n+](C[Si](C)(C)O[Si](C)(C)C)c1 | > 100 µM (inactive) | > 100 µM (inactive) | > 100 µM (inactive) |  | > 100 µM (inactive) | > 100 µM (inactive) | > 100 µM (inactive) | > 100 µM (inactive) | > 100 µM (inactive) | > 100 µM (inactive) |  | > 100 µM (inactive) | > 100 µM (inactive) | > 100 µM (inactive) | > 100 µM (inactive) |  |  |  |  | 
8 | COc1cc(C(CC(OC)OC)=C(C#N)C#N)cc(OC)c1OC | 21.4 µM (inactive) | 39.5 µM (inactive) |  | 6.52 µM (inactive) | 41.6 µM (inactive) |  | 7.26 µM (inactive) | 26.1 µM (inactive) | 3.58 µM (inactive) | 34.3 µM (inactive) | 17.1 µM (inactive) | 34.3 µM (inactive) | 32.4 µM (inactive) | 9.35 µM (inactive) | 13.7 µM (inactive) |  |  |  |  | 
9 | O=Cc1c(O)ccc2ccc(O)c(-c3c(O)ccc4ccc(O)cc34)c12 | > 100 µM (inactive) |  | > 100 µM (inactive) | > 100 µM (inactive) | > 100 µM (inactive) | > 100 µM (inactive) | > 100 µM (inactive) | 37.5 µM (inactive) | > 100 µM (inactive) | > 100 µM (inactive) | 66.7 µM (inactive) | 48.2 µM (inactive) | > 100 µM (inactive) | > 100 µM (inactive) | 52.7 µM (inactive) |  |  |  |  | 
10 | CCn1c2ccccc2c2ccc3c(c21)C(=O)C=CC3=O | 1.89 µM (inactive) |  | 3.93 µM (inactive) | 20.2 µM (inactive) | 19.9 µM (inactive) | 2.29 µM (inactive) | 2.07 µM (inactive) | 9.86 µM (inactive) | 3.85 µM (inactive) |  | 12.2 µM (inactive) | 13.5 µM (inactive) | 18.6 µM (inactive) | 9.55 µM (inactive) | 26.2 µM (inactive) |  |  |  |  | 
11 | COC(=O)c1nc(N)nc(O)c1CCCCCc1c(O)nc(N)nc1C(=O)OC | > 50 µM (inactive) | > 50 µM (inactive) | > 50 µM (inactive) | > 50 µM (inactive) | > 50 µM (inactive) | > 50 µM (inactive) |  | > 50 µM (inactive) | > 50 µM (inactive) | > 50 µM (inactive) | > 50 µM (inactive) | > 50 µM (inactive) | > 50 µM (inactive) | > 50 µM (inactive) | > 50 µM (inactive) |  |  |  |  | 
12 | CCC1=CC2Cc3nc4cc(Cl)ccc4c(N)c3C(C1)C2 (stereo not given) | 5.04 µM (inactive) | 9.12 µM (inactive) | 1.54 µM (inactive) | 4.07 µM (inactive) | 4.62 µM (inactive) | 2.58 µM (inactive) | 0.822 µM (active) | 4.55 µM (inactive) |  | 2.26 µM (inactive) | 1.91 µM (inactive) | 7.29 µM (inactive) | 12.1 µM (inactive) | 2.07 µM (inactive) | 9.27 µM (inactive) | 2.94 µM (inactive) | 2.52 µM (inactive) | 3.25 µM (inactive) | 15.5 µM (inactive) | 4.47 µM (inactive)
13 | COc1ccc(C(=O)C#Cc2cn(C3CC(O)C(CO)O3)c(=O)[nH]c2=O)cc1 (stereo not given) | 49.7 µM (inactive) | > 100 µM (inactive) | 17.9 µM (inactive) | > 100 µM (inactive) | 53 µM (inactive) | 36.5 µM (inactive) | 39.4 µM (inactive) | 10.4 µM (inactive) |  | > 100 µM (inactive) | 21.7 µM (inactive) | 19.2 µM (inactive) | > 100 µM (inactive) | 33.3 µM (inactive) | 19.3 µM (inactive) | 56.8 µM (inactive) | 19.2 µM (inactive) | 35.5 µM (inactive) | 20.2 µM (inactive) | > 100 µM (inactive)
14 | Cn1c2c(c3ccccc31)CCN(CCN1CCN(c3cccc(Cl)c3)CC1)C2=O | > 100 µM (inactive) |  | 46 µM (inactive) |  | > 100 µM (inactive) | 35.3 µM (inactive) | 43.8 µM (inactive) |  | 20.7 µM (inactive) |  | 19.9 µM (inactive) |  | > 100 µM (inactive) | 40.7 µM (inactive) | > 100 µM (inactive) |  |  |  |  | 
15 | Cc1ccc(-c2nc(C)c(C(=O)Nc3ccc(Cl)cc3)s2)cc1 | 15.2 µM (inactive) | 20.5 µM (inactive) | 27.7 µM (inactive) | 29.5 µM (inactive) | 26.5 µM (inactive) | > 100 µM (inactive) | > 100 µM (inactive) | 36.4 µM (inactive) |  | 20 µM (inactive) | 23.5 µM (inactive) | 24.1 µM (inactive) | 19 µM (inactive) | > 100 µM (inactive) | 29.9 µM (inactive) | > 100 µM (inactive) | > 100 µM (inactive) | > 100 µM (inactive) | 13.9 µM (inactive) | 44.8 µM (inactive)
16 | O=[N+]([O-])C(=C(N1CCCCC1)N1CCCCC1)/C(Cl)=C(\Cl)Br | 23.9 µM (inactive) | 26.4 µM (inactive) | 20.6 µM (inactive) | 21 µM (inactive) | 29.6 µM (inactive) | 18.3 µM (inactive) | 18.7 µM (inactive) | 28.2 µM (inactive) |  | 13.3 µM (inactive) | 19.4 µM (inactive) | 29.3 µM (inactive) | 48.1 µM (inactive) | 20.3 µM (inactive) | 24.4 µM (inactive) | 20.5 µM (inactive) | 25.2 µM (inactive) | 21.9 µM (inactive) | 33.8 µM (inactive) | 22.9 µM (inactive)
17 | CC(=O)OCC1OC(c2c(OC(C)=O)cc(C)c3c(=O)cc(/C(C(C)=O)=C(\C)O)oc23)C(OC(C)=O)C(OC(C)=O)C1OC(C)=O (stereo not given) | > 100 µM (inactive) | > 100 µM (inactive) | > 100 µM (inactive) | > 100 µM (inactive) | 87.7 µM (inactive) | > 100 µM (inactive) | > 100 µM (inactive) | > 100 µM (inactive) |  | > 100 µM (inactive) | > 100 µM (inactive) | > 100 µM (inactive) | > 100 µM (inactive) | > 100 µM (inactive) | > 100 µM (inactive) | > 100 µM (inactive) | > 100 µM (inactive) | > 100 µM (inactive) | > 100 µM (inactive) | > 100 µM (inactive)
18 | O=[N+]([O-])c1ccccc1OCCOc1ccccc1[N+](=O)[O-] | > 100 µM (inactive) | > 100 µM (inactive) | > 100 µM (inactive) | > 100 µM (inactive) | > 100 µM (inactive) | > 100 µM (inactive) | > 100 µM (inactive) | > 100 µM (inactive) |  | > 100 µM (inactive) | 71.8 µM (inactive) | > 100 µM (inactive) | > 100 µM (inactive) | > 100 µM (inactive) | > 100 µM (inactive) | > 100 µM (inactive) | > 100 µM (inactive) | > 100 µM (inactive) | > 100 µM (inactive) | > 100 µM (inactive)
